Tested on: soil urease
Assay: Efficacy test: urease inhibition in soil (urea remaining after incubation)
Type: biochemical
Settings: 800 micrograms test compound and 42.8 mg urea per 20 g air-dry soil, incubated at 25° C. for three days, run in triplicate
Experimental: Efficacy tests were conducted to evaluate the efficacy of certain representative oximated O-diaminophosphinyl compounds as urease inhibitors. The inhibition tests were run in a New York soil (Cazenovia silt loam, pH 7.2) or in Wisconsin soil (Plano silt loam, pH 5.4). Evaluations (run in triplicate) consisted of applying 800 micrograms of the test compound in 5 mL of water and 42.8 mg of urea in 1 mL of water to 20 g of air-dry soil in a glass bottle. The bottle was capped with perforated aluminum foil and incubated at 25° C. for three days prior to extraction with 100 mL of a 2M potassium chloride solution containing 0.5 mg of phenylmercuric acetate. The extracts were then analyzed for remaining urea using an autoanalyzer. Percent inhibition was calculated as [formula] where A is urea recovered from unincubated sample (urea added to soil and immediately extracted); B is urea recovered from inhibited sample; and C is urea recovered from the control (uninhibited sample).

SMILES: CC(C)=NOP(N)(N)=O [O--(Diaminophosphinyl)-2-propanone Oxime, O-(Diaminophosphinyl)-2-propanone Oxime]
- % Inhibition, Cazenovia (pH 7.2) (New York soil (Cazenovia silt loam, pH 7.2)): 84%
- % Inhibition, Wisconsin (pH 5.4) (Wisconsin soil (Plano silt loam, pH 5.4)): 53%

From patent US4624695A, “O-diaminophosphinyl derivatives of oximes as urease inhibitors” (Allied Corporation, priority 1983, dated 1986)
